Key:
Type in all cases: cell-based, human
[1] = system: PC-3 cells; assay: Dual Sensor: MitoCasp Assay in PC-3 prostate cancer cells
From the text: (§1) Techniques to assay enzymatic and signaling processes involved in apoptosis have been developed as standard protocols. One example of an early step in apoptosis, is the release of cytochrome C from mitochondria and the activation of caspase-3. Induction of the caspases (a series of cytosolic proteases) is one of the most consistently observed features of apoptosis. Caspases are a family of proteolytic enzymes that transmit the apoptotic signal using a proteolytic cascade. […] Caspases 3 and 7 are effector caspases, central to the caspase cascade pathways. In particular, caspase-3 plays a central role in the process. When caspases are activated, they cleave target proteins; one of the most important of these is poly-(ADP-ribose) polymerase (PARP), which is a protein located in the nucleus. Therefore, assays detecting release of cytochrome C, detecting caspase-3 activity and detecting PARP degradation are effective determinants of apoptosis. The loss of mitochondrial membrane potential is known to occur during apoptosis. To analyze mitochondrial membrane potential, a cationic dye may be used which accumulates in the mitochondria of healthy cells. Collapse of the mitochondrial membrane potential during apoptosis prevents the dye from accumulating in the mitochondria resulting in a decrease in fluorescent intensity that can be detected with flow cytometry. Dual Sensor: MitoCasp™ (Cell Technology) used herein in the Examples is an assay that measures caspase 3/7 activity and cells with decreased mitochondrial membrane potential. In this assay, caspase 3/7 activity is detected using a cell permeable carboxyfluorescein labeled caspase inhibitor, which binds covalently to active caspases 3 and 7. Cells that contain bound inhibitor are detected by an increase in fluorescence when samples are analyzed by flow cytometry.
PC-3 cells (ATCC #CRL-1435) were derived from a prostate adenocarcinoma (Kaighn et al., 1979). They were maintained in RPMI 1640 medium (Gibco) supplemented with 10% fetal bovine serum (Cansera), 100 U/mL penicillin, and 100 μg/mL streptomycin and 0.25 μg/mL amphotericin B. Cultures were maintained in medium at 37° C. with 5% CO2 and 100% relative humidity.
To harvest adherent cells, the existing medium was removed and cells were dissociated with 0.25% (w/v) trypsin-EDTA·4Na in Hank's Balanced Salt Solution (Gibco). To block the proteolytic action of the trypsin, the cells were resuspended in an excess of media containing fetal bovine serum. Cells were transferred to a 15 mL conical centrifuge tube and pelleted by centrifugation at 500×g for 5 min. Cell pellets were resuspended in media, and an aliquot of the cells were seeded into a new flask.
PC-3 cells were seeded in tissue culture flasks with regular growth medium and maintained under normal conditions. […] Following incubation under normal growth conditions for the specified time, cells were washed once with cold phosphate-buffered saline (PBS) (137 mM NaCl, 2.7 mM KCl, 4.3 mM Na2HPO4.7H2O, 1.4 mM KH2PO4) and harvested as previously described. Assays were carried out according to instructions given in kits. All Flow Cytometry was performed using a Coulter Epics XL (Beckman).
(§2) Following centrifugation at 500×g for 5 min, cell pellets were resuspended in PBS at 3.3×10^6 cells/mL. 300 μL cell suspension was mixed with 10 μL each of 30X Mitochondria Membrane Potential Dye and 30X Caspase 3/7 detection reagent. Following incubation for 60 min under normal growth conditions, cells were washed twice with 1× wash buffer and resuspended in 0.5 mL 1× wash buffer. Samples were analyzed by flow cytometry measuring the fluorescence emissions from 515 nm to 530 nm for caspase detection, and 574 nm to 600 nm for mitochondrial membrane potential detection.

[2] = system: MDA-MB-231 cells; assay: Dual Sensor: MitoCasp Assay in MDA-MB-231 breast cancer cells
From the text: as §1, §2
The MDA-MB-231 cell line (ATCC #HTB-26) was derived from the pleural effusion of a patient with a breast adenocarcinoma (Cailleau et al., 1974). The cells were maintained in RPMI 1640 (Gibco) supplemented with 10% fetal bovine serum (Camera), 100 U/mL penicillin, 100 μg/mL streptomycin and 0.25 μg/mL amphotericin B. Cultures were maintained in medium at 37° C. with 5% CO2 and 100% relative humidity. […]

[3] = system: CRL-2522 cells; assay: Dual Sensor: MitoCasp Assay in CRL-2522 normal fibroblast cells; conditions: CRL-2522 cells
From the text: as §1, §2
CRL-2522 cells, acquired from ATCC, (American Type Culture Collection) are normal fibroblast cells that originated from human foreskin. CRL-2522 cells were maintained in RPMI 1640 medium (Gibco) supplemented with 10% fetal bovine serum (Cansera), 100 U/mL penicillin, 100 μg/mL streptomycin and 0.25 μg/mL amphotericin B. Cultures were maintained in medium at 37° C. with 5% CO2 and 100% relative humidity. […]

[4] = system: HT-29 cancer cells; assay: Dual Sensor: MitoCasp Assay in HT-29 colon cancer cells; conditions: HT-29 cells, 2.5 μM, 5.0 μM, 10 μM and 15 μM, 24 hours
From the text: as §1, with “To analyze mitochondrial membrane potential, a cationic dye may be used which accumulates in the mitochondria of healthy cells.” left out, “Dual Sensor: MitoCasp™ (Cell Technology) used herein in the Examples is an assay that measures caspase 3/7 activity and cells with decreased mitochondrial membrane potential.” left out
Following PC1448 treatment, adherent and non-adherent cells were harvested and washed with cold PBS. […] Samples were analyzed by flow cytometry measuring the fluorescence emissions from 515 nm to 530 nm for caspase detection, and 574 nm to 600 nm for mitochondrial membrane potential detection. […]
HT-29 cancer cells were treated with 2.5 μM, 5.0 μM and 10 μM of PC1526 or PC1448 for 23 hours, or with 2.5 μM, 5.0 μM and 10 μM PC1422 for 24 hours and assessed using the Dual Sensor: MitoCasp™ Assay. […]

## CC1OC(OC(=O)C23CCC(C)(C)CC2C2=CCC4C5(C)CCC(OC6OC(C(=O)O)C(O)C(O)C6OC6OC(CO)C(O)C(O)C6O)C(C)(C=O)C5CCC4(C)C2(C)CC3O)C(OC2OC(C)C(OC3OCC(O)C(O)C3O)C(O)C2O)C(OC2OC(CO)C(O)C2O)C1O (stereo not shown) [PC1380]
[1]; 2.5 μM PC1380, 35 hr
  Cells with caspase 3/7 activity: 11.4%
  Cells with decreased mitochondrial membrane potential: 5.8%
[1]; 5.0 μM PC1380, 35 hr
  Cells with caspase 3/7 activity: 15.3%
  Cells with decreased mitochondrial membrane potential: 7.1%
[1]; 10.0 μM PC1380, 35 hr
  Cells with caspase 3/7 activity: 14.9%
  Cells with decreased mitochondrial membrane potential: 8.7%
[1]; 15.0 μM PC1380, 35 hr
  Cells with caspase 3/7 activity: 31.8%
  Cells with decreased mitochondrial membrane potential: 15.9%
[1]; PC1380 15.0-2.5 μM, 35 hours
  Cells with Caspase 3/7 activity and decreased mitochondrial membrane potential vs untreated (in words): small increase
[2]; 2.5 μM PC1380, 34 hr
  Cells with caspase 3/7 activity: 6.2%
  Cells with decreased mitochondrial membrane potential: 3.2%
[2]; 5.0 μM PC1380, 34 hr
  Cells with caspase 3/7 activity: 8.0%
  Cells with decreased mitochondrial membrane potential: 4.7%
[2]; 10.0 μM PC1380, 34 hr
  Cells with caspase 3/7 activity: 9.4%
  Cells with decreased mitochondrial membrane potential: 6.6%
[2]; 15.0 μM PC1380, 34 hr
  Cells with caspase 3/7 activity: 7.9%
  Cells with decreased mitochondrial membrane potential: 4.3%
[2]; PC1380 15.0-2.5 μM, 34 hours
  Apoptosis activity (in words): no significant apoptosis activity
[3]; 2.5 μM PC1380, 32 hr
  Cells with caspase 3/7 activity: 0.4%
  Cells with decreased mitochondrial membrane potential: 1.8%
[3]; 5.0 μM PC1380, 32 hr
  Cells with caspase 3/7 activity: 1.0%
  Cells with decreased mitochondrial membrane potential: 4.0%
[3]; 10.0 μM PC1380, 32 hr
  Cells with caspase 3/7 activity: 1.2%
  Cells with decreased mitochondrial membrane potential: 2.6%
[3]; 15.0 μM PC1380, 32 hr
  Cells with caspase 3/7 activity: 0.9%
  Cells with decreased mitochondrial membrane potential: 4.5%
[3]; PC1380 15.0-2.5 μM, 32 hours
  Apoptosis (in words): no significant apoptosis
[4]
  Induction of apoptosis (in words, FIG. 6): does not induce apoptosis

— patent US20110230430A1, “SAPONIN EXTRACT FROM SAPONARIA SPP. AND USES THEREOF” (NATIONAL RESEARCH COUNCIL OF CANADA, priority 2008, published 2011)
